Results taken from patent publication US8906852B2 (MethylGene Inc., priority 2010, dated 2014).

What was measured:
CNV progression = experiment: In vivo choroidal neovascularization (CNV) model, laser-induced, intravitreal injection; set-up: species or system Male Brown-Norway rats; details: rat, 10 nmol/eye injected on Day 3, CNV area on Day 10, vs vehicle; for inhibition in vivo at 10 nmol/eye: 240 h
Source text: This test measures the capacity of compounds to inhibit CNV progression. CNV is the main cause of severe vision loss in patients suffering from age-related macular degeneration (AMD).
Male Brown-Norway rats (Japan Clea Co., Ltd.) were used in these studies.
Rats were anesthetized by intraperitoneal injection of pentobarbital, and the right pupil was dilated with 0.5% tropicamide and 0.5% phenylephrine hydrochloride. The right eye received 6 laser burns between retinal vessels using a slit lamp delivery system of Green laser Photocoagulator (Nidex Inc., Japan), and microscope slide glass with Healon™ (AMO Inc) used as a contact lens. The laser power was 100 or 200 mW for 0.1 second and spot diameter was 100 μm. At the time of laser burn, bubble production was observed, which is an indication of rupture of Bruch's membrane which is important for CNV generation.
Rats were divided into the groups based on their body weight using SAS software (SAS institute Japan, R8.1) after laser irradiation (Day 0). After animals were anesthetized, and the right pupil dilated (as above mentioned), the right eye of the animal received the compound or vehicle by an injection (10 μL/eye) at doses of 10 or 3 nmol/eye on Day 3. The compounds were dissolved or suspended in CBS, PBS, or other adequate vehicles before injection.
On Day 10, the animals were anesthetized with ether, and high molecular weight fluorescein isothiocyanate (FITC)-dextran (SIGMA, 2×10^6 MW) was injected via a tail vein (20 mg/rat). About 30 min after FITC-dextran injection, animals were euthanized by ether or carbon dioxide, and the eyes were removed and fixed with 10% formaline neutral buffer solution. After over 1 hour of fixation, RPE-choroid-sclera flat mounts were obtained by removing cornea, lens and retina from the eyeballs. The flat mounts were mounted in 50% glycerol on a microscope slide, and the portion burned by laser was photographed using a fluorescence microscope (Nikon Corporation, excitation filter:465-495 nm, absorption filter:515-555 nm). The CNV area was obtained by measurement of hyper-fluorescence area observed on the photograph using Scion image.
The average CNV area of 6 burns was used as an individual value of CNV area, and the average CNV area of compound treated group was compared with that of the vehicle-treated group.

VEGFR/KDR = molecular target: T1, VEGFR/KDR (Homo sapiens, UniProt P35968); experiment: VEGFR/KDR kinase inhibition, DELFIA assay; assay type: biochemical; details: ATP 0.6 uM (2x Km), enzyme 5 nM
T1 construct: made in house; host or cells: Sf9 cells (Spodoptera frugiperda), baculovirus
T1 sequence (P35968 806-1356): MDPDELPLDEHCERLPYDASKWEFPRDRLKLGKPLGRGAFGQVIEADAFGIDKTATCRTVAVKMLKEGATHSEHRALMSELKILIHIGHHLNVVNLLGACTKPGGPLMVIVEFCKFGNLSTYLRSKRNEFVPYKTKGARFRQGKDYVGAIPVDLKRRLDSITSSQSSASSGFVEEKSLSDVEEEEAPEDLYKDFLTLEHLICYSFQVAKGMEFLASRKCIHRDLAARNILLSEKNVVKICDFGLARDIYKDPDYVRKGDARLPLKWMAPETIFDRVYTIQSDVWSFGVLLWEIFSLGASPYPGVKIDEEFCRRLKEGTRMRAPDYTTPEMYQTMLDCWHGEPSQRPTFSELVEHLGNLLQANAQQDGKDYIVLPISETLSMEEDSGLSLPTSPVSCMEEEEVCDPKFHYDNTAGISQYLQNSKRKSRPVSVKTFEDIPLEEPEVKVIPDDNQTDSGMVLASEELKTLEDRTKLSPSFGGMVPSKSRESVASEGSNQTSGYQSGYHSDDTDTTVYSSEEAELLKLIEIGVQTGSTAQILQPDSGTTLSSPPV
Summary of the method: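 DELFIA time-resolved fluorescence readout using Europium-tagged anti-phosphotyrosine antibody after EDTA stop. Kinase reaction on plate-bound poly(Glu4,Tyr) ran 10-30 min at 30° C with 5 nM enzyme and 0.6 uM ATP (2× Km), following 4 min on-ice pre-incubation with compound; IC50 over a concentration range.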

Compound	Inhibition of CNV progression (CNV progression)	IC50 (VEGFR/KDR) [nM]	inhibition in vivo at 10 nmol/eye (CNV progression) [%]
2-cyclopropyl-N-(3-fluoro-4-(2-(5-((N- (2-methoxyethyl)-acetamido)methyl)pyridin-2- yl)thieno[3,2-b]-pyridin-7-yloxy)phenyl)-acetamide [Compound 42]	A (greater than or equal to 60% inhibition)		
CNC(=O)N(CCOC)Cc1ccc(-c2cc3nccc(Oc4ccc(NC(=O)NC5CC5)cc4F)c3s2)nc1 [Compound 3, N-[3-((6-(7-(4-(3-cyclopropylureido)-2-fluorophenoxy)thieno[3,2-b]pyridin-2-yl)pyridin-3-yl)methyl)]-N-(1-methyl)-N-[3-(2-methoxyethyl)]urea]	A (greater than or equal to 60% inhibition)	< 50	
COCCN(Cc1ccc(-c2cc3nccc(Oc4ccc(NC(=O)NC5CC5)cc4F)c3s2)nc1)C(N)=O [Compound 5, N-[3-((6-(7-(4-(3-cyclopropylureido)-2-fluorophenoxy)thieno[3,2-b]pyridin-2-yl)pyridin-3-yl)methyl)]-N-[3-(2-methoxyethyl)]urea]		< 50	40 to 60
COCCN(C=N)Cc1ccc(-c2cc3nccc(Oc4ccc(NC(=O)NC5CC5)cc4F)c3s2)nc1 [Compound 7, N-((6-(7-(4-(3-cyclopropylureido)-2-fluorophenoxy)thieno[3,2-b]pyridin-2-yl)pyridin-3-yl)methyl)-N-(2-methoxyethyl)formimidamide]		< 50	≥ 60
O=C(Nc1ccc(Oc2ccnc3cc(-c4ccc(CNCCO)cn4)sc23)c(F)c1)NC1CC1 [Compound 9, 1-cyclopropyl-3-(3-fluoro-4-(2-(5-((2-hydroxyethylamino)methyl)pyridin-2-yl)-thieno[3,2-b]pyridin-7-yloxy)phenyl)urea]		< 50	≥ 60
COCCNCc1ccc(-c2cc3nccc(Oc4ccc(NC(=O)NC5CC5)c(F)c4F)c3s2)nc1 [Compound 25, 1-cyclopropyl-3-(2,3-difluoro-4-(2-(5-((2-methoxyethylamino)methyl)pyridin-2-yl)thieno[3,2-b]pyridin-7-yloxy)phenyl)urea]		< 50	≥ 60
CCNC(=O)N(CCOCCOCCOCCOC)Cc1ccc(-c2cc3nccc(Oc4ccc(NC(=O)NC5CC5)cc4F)c3s2)nc1 [Compound 36, N-[3-((6-(7-(4-(3-cyclopropylureido)-2-fluorophenoxy)-thieno[3,2-b]-pyridin-2-yl)pyridin-3-yl)methyl)]-N-(1-ethyl)-N-[3-(2,5,8,11-tetraoxatridecan-13-yl)]urea]		< 50	40 to 60
COCCN(CCc1ccc(-c2cc3nccc(Oc4ccc(NC(=O)NC5CC5)cc4F)c3s2)nc1)C(C)=O [Compound 41, N-(2-(6-(7-(4-(3-cyclopropylureido)-2-fluorophcnoxy)-thieno[3,2-b]-pyridin-2-yl)pyridin-3-yl)ethyl)-N-(2-methoxyethyl)-acetamide]		< 50	40 to 60
CC(=O)N(CCS(C)(=O)=O)Cc1ccc(-c2cc3nccc(Oc4ccc(NC(=O)NC5CC5)cc4F)c3s2)nc1 [Compound 43, N-((6-(7-(4-(3-cyclopropylureido)-2-fluorophenoxy)thieno[3,2-b]pyridin-2-yi)pyridin-3-yl)methyl)-N-(2-(methylsulfonyl)ethyl)acetamide]		< 50	40 to 60
COCCOCCOCCOCCN(Cc1ccc(-c2cc3nccc(Oc4ccc(NC(=O)NC5CC5)cc4F)c3s2)nc1)C(=O)CO [Compound 45]		< 50	40 to 60
O=C(Nc1ccc(Oc2ccnc3cc(-c4ccc(CN5CCNCC5)cn4)sc23)c(F)c1)NC1CC1 [Compound 49, 1-cyclopropyl-3-(3-fluoro-4-(2-(5-(piperazin-1-ylmethyl)pyridin-2-yl)thieno[3,2-b]-pyridin-7-yloxy)phenyl)urea]		< 50	≥ 60
CN1CCN(Cc2ccc(-c3cc4nccc(Oc5ccc(NC(=O)NC6CC6)cc5F)c4s3)nc2)CC1 [Compound 51, 1-cyclopropyl-3-(3-fluoro-4-(2-(5-((4-methylpiperazin-1-yl)methyl)pyridin-2-yl)thieno[3,2-b]-pyridin-7-yloxy)phenyl)urea]		< 50	≥ 60
O=C(Nc1ccc(Oc2ccnc3cc(-c4ccc(CN5CCN(CCO)CC5)cn4)sc23)c(F)c1)NC1CC1 [Compound 55, 1-cyclopropyl-3-(3-fluoro-4-(2-(5-((4-(2-hydroxyethyl)piperazin-l-yl)methyl)pyridin-2-yl)thieno[3,2-b]-pyridin-7-yloxy)phenyl)urea]		< 50	40 to 60
CN(C)C(=O)CCN1CCN(Cc2ccc(-c3cc4nccc(Oc5ccc(NC(=O)NC6CC6)cc5F)c4s3)nc2)CC1 [Compound 83, 3-(4-((6-(7-(4-(3-cyclopropylureido)-2-luorophenoxy)thieno-[3,2-b]pyridin-2-yl)pyridin-3-yl)melhyl)piperazin-l-yl)-N,N-dimethyl-propanamide]		< 50	40 to 60
COCCN(Cc1ccc(-c2cc3nccc(Oc4ccc(NC(=O)NC5CC5)cc4F)c3s2)nc1)C(=O)[C@H](C)O [Compound 89, (S)-N-((6-(7-(4-(3-cyclopropylureido)-2-fluorophenoxy)thieno[3,2-b]pyridin-2-yl)pyridin-3-yl)methyl)-2-hydroxy-N-(2-methoxyethyl)propanamide]		< 50	≥ 60
O=C(Nc1ccc(Oc2ccnc3cc(-c4ccc(C(=O)N5CCN(C(=O)CO)CC5)cn4)sc23)c(F)c1)NC1CC1 [Compound 584]		< 50	
COCCOCCOCC(=O)N1CCN(Cc2ccc(-c3cc4nccc(Oc5ccc(NC(=O)NC6CC6)cc5F)c4s3)nc2)CC1 [Compound 588, 1-Cyclopropyl-3-(3-fluoro-4-(2-(5-((4-(2-(2-(2-methoxyethoxy)ethoxy)acetyl)piperazin-1-yl)methyl)pyridin-2-yl)thieno[3,2-b]pyridin-7-yloxy)phenyl)urea]		< 50	
COCCOCC(=O)N1CCN(Cc2ccc(-c3cc4nccc(Oc5ccc(NC(=O)NC6CC6)cc5F)c4s3)nc2)CC1 [Compound 589]		< 50	
COCCOCCOCCNC(=O)N1CCN(Cc2ccc(-c3cc4nccc(Oc5ccc(NC(=O)NC6CC6)cc5F)c4s3)nc2)CC1 [Compound 596, 4-((6-(7-(4-(3-Cyclopropylureido)-2-fluorophenoxy)thieno[3,2-b]pyridin-2-yl)pyridin-3-yl)methyl)-N-(2-(2-(2-methoxyethoxy)ethoxy)ethyl)piperazine-1-carboxamide]		< 50	
O=C(Nc1ccc(Oc2ccnc3cc(-c4ccc(CN5CCC(O)CC5)cn4)sc23)c(F)c1)NC1CC1 [Compound 599, 1-Cyclopropyl-3-(3-fluoro-4-(2-(5-((4-hydroxypiperidin-1-yl)methyl)pyridin-2-yl)thieno[3,2-b]pyridin-7-yloxy)phenyl)urea]		< 50	
CC(=O)N(Cc1ccc(-c2cc3nccc(Oc4ccc(NC(=O)NC5CC5)cc4F)c3s2)nc1)C1CCNCC1 [Compound 609, N-((6-(7-(4-(3-Cyclopropylureido)-2-fluorophenoxy)thieno[3,2-b]pyridin-2-yl)pyridin-3-yl)methyl)-N-(piperidin-4-yl)acetamide]		< 50	
COCCNCCn1cnc(-c2cc3nccc(Oc4ccc(NC(=O)NC5CC5)cc4F)c3s2)c1 [compound 253]		< 50	
(S)-1-(4-(2-(5-((3-amino-2-oxopyrrolidin-1-yl)methyl)pyridin-2-yl)thieno[3,2-b]pyridin-7-yloxy)-3-fluorophenyl)-3-cyclopropylurea [Compound 108]	A (greater than or equal to 60% inhibition)		
N-(4-(7-(4-(3-cyclopropylureido)-2-fluorophenoxy)thieno[3,2-b]pyridin-2-yl)benzyl)-2-(2-methoxyethoxy)-N-(2-methoxyethyl)acetamide [Compound 115]		< 50	
N-((6-(7-(4-(3-cyclopropylureido)-2-fluorophenoxy)thieno[3,2-b]pyridin-2-yl)pyridin-3-yl)methyl)-N-(2-methoxyethyl)formimidamide [Compound 7]	B (≧40% to <60% inhibition)		
